In US20070032461A1, “1,3 Aclyated 24-keto-vitamin d3 compounds and methods of use thereof” (BioXell S.p.A., priority 2003, published 2007):

Tests used:
[1] = system: ILT3 surface molecule expression on immature dendritic cells; assay: ILT3 upregulation on monocyte-derived immature dendritic cells, flow cytometric analysis; assay type: cell-based, human; settings: immature dendritic cells cultured 24 hours with graded doses, up to 1000 nM
Procedure: Immature dendritic cells (DC) were prepared as described in Romani, N. et al. (Romani, N. et al. (1996) J. Immunol. Meth. 196:137). Briefly, peripheral blood mononuclear cells (PBMCs) were obtained from a buffy coat by ficoll-hypaque gradient (Pharmacia Biotec AB, Upsala, Sweden) and monocytes isolated from PBMCs by negative selected with a monocyte isolation kit (Milteny, Biotech, Bergish Gladblach, Germany). After isolation, monocytes were cultured for 6 to 7 days at a cell density of 1-2×10^6 in RPMI medium supplemented with 5% FetalClone I (Hyclone Laboratories, Logan, Utah) 2 mM L-glutamine, […], 1 mM sodium pyruvate and 1% nonessential amino acids, containing 800 U/ml GM-CSF (Mielogen 300, Schering-Plough) and 10 ng/ml interleukin (IL)-4 (PharMingen, San Diego, Calif.). Every other day, approximately 20% of the medium was removed and replaced by the same volume of fresh medium containing GM-CSF and IL-4.
After 6 to 7 days of culture, non-adherent cells (representing immature Dendritic Cells) were harvested and cultured for 24 hours in the presence of graded doses of the following vitamin D compounds: 1,25(OH)2D3; 1,3-O-Diacetyl-1,25 Dihydroxy-16-ene-24-Keto-19-nor Cholecalciferol (compound (2)); and the compounds Mycophenolate Mofetil (MMF) and Dexamethasone (DEX).
Immunoglobulin-Hike transcript-3 upregulation was evaluated by flow cytometric analysis. Briefly, cells were preincubated with […] human IgG (Sigma Chemical, St. Louis, Mo.) and subsequently stained with anti-human ILT3 antibody (see, e.g., Cella, M. et al. (1997) J. Exp. Med. 185:1743) followed by anti-mouse IgG-phycoerithryn (Jackson). Cells were then analyzed with a FACScan® flow cytometer using a Cell Quests software program (both from Beckton Dickinson, Mountain View, Calif.).

[2] = Maximum tolerated dose (MTD) without inducing hypercalcemia, oral daily dosing for four days, serum calcium assay; assay type: in vivo, C57BL/6 mice
Procedure: The maximum tolerated dose of the vitamin D3 compounds of the invention were determined in eight week-old female C57BL/6 mice (3 mice/group) dosed orally (0.1 ml/mouse) with various concentrations of Vitamin D3 analogs daily for four days. Analogs were formulated in miglyol for a final concentration of 0.01, 0.03, 0.1 0.3, 1, 3, 10, 30, 100 and 300 μg/kg when given at 0.1 ml/mouse p.o. daily. Blood for serum calcium assay was drawn by tail bleed on day five, the final day of the study. Serum calcium levels were determined using a colorimetric assay (Sigma Diagnostics, procedure no. 597). The highest dose of analog tolerated without inducing hypercalcemia (serum calcium >10.7 mg /dl) was taken as the maximum tolerated dose (MTD).

[3] = system: IFN-γ production in MLR (allogeneic PBMC); assay: IFN-γ production by allogeneic T cell activation in the mixed leukocyte response (MLR), ELISA; assay type: cell-based; settings: 120 h, MLR of allogeneic PBMC from 2 donors, 5 days, read-out: INF-γ IC50
Procedure: Immature dendritic cells (DC) were prepared as described in Romani, N. et al. (Romani, N. et al. (1996) J. Immunol. Meth. 196:137). IFN-γ production by allogeneic T cell activation in the mixed leukocyte response (MLR) was determined as described in Penna, G., et al., J. Immunol., 164: 2405-2411 (2000).
Briefly, peripheral blood mononuclear cells (PBMC) were separated from buffy coats by Ficoll gradient and the same number (3×10^5) of allogeneic PBMC from 2 different donors were co-cultured in 96-well flat-bottom plates. After 5 days, IFN-γ production in the MLR assay was measured by ELISA and the results expressed as amount (nM) of test compound required to induce 50% inhibition of IFN-γ production (IC50).

[4] = female C57BL/6 mice, p.o. daily for four days, highest dose without hypercalcemia (serum calcium >10.7 mg/dl)

Molecule | ILT3 expression on cell surface [1] | MTD (mice) [2, 4] [µg/kg] | IC50 [3] [pM] | MTD relative to compound (1) ([2]; mice, oral, ratio of the MTD of compound (2) to that of the corresponding dihydroxy compound (1)) | MTD at 4 days ([2]; mouse, po, female C57BL/6 mice, p.o. daily for four days, highest dose without hypercalcemia (serum calcium >10.7 mg/dl)) [µg/kg]
1,25(OH)2D3 | upregulated | 1 |  |  | 
CC(CCC(=O)C(C)(C)O)C1=CCC2C(=CC=C3CC(O)CC(O)C3)CCCC12C (centres unmarked) [(1), 1,25-dihydroxy-16-ene-24-keto-19-nor-cholecalciferol] |  | 1 |  |  | 
CC(=O)O[C@@H]1CC(=C/C=C2\CCC[C@]3(C)C([C@H](C)CCC(=O)C(C)(C)O)=CCC23)C[C@@H](OC(C)=O)C1 (some centres unmarked) [Compound (2), 1,3-O-Diacetyl-1,25-Dihydroxy-16-ene-24-Keto-19-nor-Cholecalciferol] | upregulated |  | 8 | more than 300 times | > 300
COc1c(C)c2c(c(O)c1C/C=C(\C)CCC(=O)OCCN1CCOCC1)C(=O)OC2 [MMF, Mycophenolate Mofetil] | fail to upregulate |  |  |  | 
